Measurements: patent US5672585A, “Method and composition for treating thrombosis” (priority 1995, dated 1997)
pIC50: −log10 of the molar value.

Assays:
[1] = biological target: T1, Fibronectin receptor (Fn-R) (Homo sapiens, UniProt P05556+P08648); assay: FnR binding, competitive ELISA (Table I); details: purified receptor, * concentrations unconfirmed by amino acid composition analysis
T1 construct: Fibronectin receptor (Fn-R) was similarly purified from (100 mM) octyl glucoside-extracted human placenta; from tissue; host or cells: human placenta
Protocol: Peptide binding to purified Fn-R was determined by using a competitive enzyme-linked immunosorbent assay (ELISA) in which fibronectin is immobilized and the binding of solubilized Fn-R and the binding of solubilized FN-R, in the presence of various concentrations of peptide analogue, is detected with a polyclonal anti-Fn-R antibody followed by a labelled anti-rabbit IgG conjugate.
Microtiter plates were coated with 110 μl of human fibronectin (at 2 μg/ml) in TBS. The plates were washed three times with TBS that contained 0.05% Tween 20. 50 microliters of receptor in TBS containing 20 mM octylglucoside and 2 mM NmCl2 was added to each well. 50 microliters of peptide in the same buffer was then added in 10-fold serial dilutions. The plates were incubated for three hours at room temperature, washed with 200 μl of the above TBS-Tween buffer. 100 μl of affinity-purified rabbit anti-human fibronectin receptor antibody was added to the wells and the plates were incubated for an additional two hours, washed twice with TBS-Tween and then distilled water. Affinity-purified goat anti-rabbit IgG conjugated to horseradish peroxidase (100 μl) was then added to each well. Bonding reactions were incubated for 16 hours at room temperature. The following day, the plates were washed twice with TBS-Tween and then distilled water. […]
IC50 s for FnR were determined by ELISA (Example III).

[2] = biological target: vitronectin receptor (Vn-R); assay: VnR binding, ELISA or liposome attachment assay (Table I); set-up: species or system human; details: purified receptor
Protocol: Receptor and ligand purifications were performed according to the methods in this Example or those in Examaple XI.C. Receptors were purified according to the procedures of Pytela et al. (Methods Enzymol. 144:475 (1987)), incorporated herein by reference. […] Except where stated, all procedures were carried out at 4° C. The peptide column was washed with three volumes of Tris-buffered saline (TBS) containing 1 mM Ca^2+ and 25 mM OG and then with TBS containing 1 mM Ca^2+ and 25 mM octyl thioglucoside (OTG) at room temperature. […] Finally, Ca^2+ and Mg^+2 were added to eluted fractions to achieve final concentrations of 1 mM for both ions.
This assay was performed with minor modifications, according to the method of Pytela et al., Methods Enzymol. 144:475 (1987), incorporated herein by reference. Briefly, 1:4 mixture of labelled and unlabelled phosphatidylcholine (PC) liposomes was dissolved under nitrogen and diluted with an equal volume of purified receptor (purified as described in Example II) to achieve a fixed predetermined receptor-liposome concentration ratio. This mixture was then dialyzed overnight at 4° C. in phosphate buffered saline (PBS) containing 1 mM Ca^2+. An aliquot of the dialyzed sample was counted to assess radioactive content; the receptor-liposome mixture was then diluted to obtain a set radioactivity per unit volume.
Microtiter plates were coated with 10 μg of vitronectin. Non-specific sites were blocked for 2 hours at 37° C. in PBS containing 5 mg/ml BSA and 1 mM each of CaCl2 and MgCl2. The plates were then rinsed twice with PBS containing 1 mM Ca^+2 and Mg^+2, and 100 μl of the liposome-receptor mixture was added to each well. If necessary, peptides were added before this step in a 1-10% dilution. The plates were then incubated at 4° C. for 24 hours. The following day, the liquid in each well was aspirated and the plates were washed twice with PBS containing 1 mM Ca^+2 and Mg^+2. Finally, 100 μl of 2% SDS was added, the plates were shaken for 10-15 minutes, and the supernatants were collected, vortexed, and subjected to liquid scintillation counting. This procedure typically yielded ca. 1000 total and 100 non-specific counts per well.
In parallel studies with the platelet aggregation experiments (described in Example V), the apparent affinities of peptides for GP IIbIIa, fibronectin and vitronectin receptors were determined. Receptor-binding assays (as described in Examples III and IV) with purified receptors, were used to assess the abilities of the peptides to displace the binding of receptors to their receptor-specific ligands.
(§2) Those for VnR and GP IIb/IIIa were determined either by ELISA or liposome attachment assay (Example IV).

GP IIb/IIIa [3] = biological target: T2, GP IIb/IIIa (Homo sapiens, UniProt P05106+P08514); assay: IIb/IIIa binding, ELISA or liposome attachment assay (Table I); set-up: Platelet glycoprotein IIb/IIIa was purified from outdated human platelets; from tissue; host or cells: outdated human platelets; details: purified receptor
Protocol: Microtiter plates, 96 wells were coated (Type Nunc 1 Maxispor™) with 10 μg/ml purified fibrinogen (100 μl/well), and allowed to stand overnight at 4° C. The plates were washed three times with PBS Tween, 0.137M NaCl, 0.003M KCl, 0.008M Na2 HPO4, pH 7.4 at room temperature, 0.05% Tween-20 and blocked for 1 to 2 hours at room temperature with 200 μl/well TNCNT (which is 0.5% BSA, 20 mM Tris, pH 7.5 at room temperature, 120 mM NaCl, 0.2% NAN3, 2 mM CaCl2, 0.05% Tween 20, [Calbiochem RIA grade or better]) on a plate shaker. The plates were again washed three times with PBS/Tween and 50 μl of sample in TNCNT is added. The mixture was incubated for 15 minutes at room temperature on a plate shaker. The stock solution of purified GPIIb IIIa receptor from human platelets, (0.4-1.0 mg/ml GPIIb IIIa in 0.1% Triton X-100, 1 mM CaCl2, 20 mM Tris, 150 mM NaCl, 0.05% NaN3 in 0.3M N-acetyl glucosamine pH 7.5, stored at -70° C.), was reconstituted in TNCNT. Fifty (50) μl of this diluted GPIIb IIIa was then added to each well and incubated on a plate shaker at room temperature. […] The optical density at 492 nm vs 405 nm was recorded and IC50 values are determined.
as §2

canine platelets = assay: Canine platelet aggregation in vitro (ADP, arachidonic acid, collagen); format: cell-based, dog; details: stimulated by 10 μm ADP, […] arachidonic acid or 9.6 micrograms/ml collagen; read-out: IC50 against canine platelet aggregation
platelets [4] = assay: Ex vivo platelet aggregation in the canine coronary thrombosis study; details: dog
Protocol: For all ex vivo studies (see FIGS. 3A, 3B1, 3B2, 3B3, 3C1 and 3C2), control aggregation values were standardized to the percentages of light transmission observed in PRP and PPP samples (0% and 100%, respectively).
(§1) Animals were randomly assigned to two treatment groups: vehicle control (i.e., normal saline) or RGD peptides at various concentrations. Peptides were administered intra-atrially in both bolus and continuous injections. Each bolus injection consisted of 0.5 to 10 mg/kg and was administered 15 minutes before application of the current. A continuous infusion of the same peptide was then started immediately after completion of this initial injection. Animals received a 25 μg/kg/min to 200 μg/kg/min infusion. The anti-thrombotic effects of the peptides were monitored until 30 minutes after the occurrence of a persistent, occlusive thrombus or five hours after the initiation of electrical stimulation (whichever resulted first). If an occlusive thrombus had not developed within four hours after the initiation of current, the peptide infusion was stopped.
Platelet counts and ex vivo aggregation studies were performed one hour before and 1, 3, and 5 hours after application of anodal direct current.
Platelet aggregation was also determined ex vivo at one, three, and five hours after current application. For these studies, arachidonic acid, or collagen was again used to stimulate the platelets.

coronary thrombosis = assay: Electrically induced canine coronary thrombosis, time to full occlusion; format: in vivo; details: dog
Protocol: Male mongrel dogs weighing 14 to 20 kg were selected based on proper aggregation of their platelets in response to arachidonic acid, collagen, and adenosine disphosphate (ADP) and based on similar weights and hemodynamic properties.
Before surgery, the animals were anesthetized with sodium pentobarbital (30 mg/kg, i.v.) and then intubated and ventilated on room air with positive pressure using a respirator (Harvard Apparatus, S. Natick, Mass.) at a volume of 30 ml/kg and a frequency of 12 breaths/min. Surgery, performed under aseptic conditions, was begun with the placement of cannulae into the left carotid artery and jugular vein for monitoring arterial blood pressure (Statham P23 pressure transducer, Gould, Inc., Cardiovascular Products, Oxnard, CA) and administering intravenous fluids.
The heart was exposed via a left thoracotomy through the 5th intercostal space. A 2-cm segment of the left circumflex coronary artery (LCCA) was isolated from surrounding tissue by blunt dissection. […] The intra-coronary electrode was constructed by attaching a 25-gauge hypodermic needle tip to a 30-gauge Teflon-insulated silver-coated copper wire. The mechanical occluder was constructed of stainless steel in a C shape with a Teflon screw (2 mm diameter) on top. It was adjusted to control vessel circumference and decrease the reactive hyperemic flow due to a 10-sec (full) occlusion by 50-70% without affecting basal coronary blood flow (FIG. 1C). A monopolar epicardial electrode was sutured to the surface of the ventricle in the region of LCCA distribution to monitor ischemic changes in the electrocardiogram (ECG). The left atrium was cannulated with polythylene tubing for administration of the peptide. Continuous recordings of blood pressure, limb lead II ECG, epicardial electrogram, and mean and phasic LCCA blood flow were obtained on a Model 7 polygraph (Grass Instrument Co., Quincy, Mass.).
One hour after the completion of surgery, a 100 micro-amp continuous anodal direct current delivered from a 9 volt nickel-cadmium battery was applied to the intimal surface of the LCCA. The anode of the battery was in series with a 250,000 ohm potentiometer and the intraluminal coronary artery electrode. The electric circuit was completed by placing the cathode in a subcutaneous site. Electrical stimulation was applied for three hours. At the conclusion of each experiment, the heart was fibrillated electrically and quickly removed, and the LCCA was dissected free as far as possible to verify the position of the implanted anodal electrode.
as §1
Coronary thrombosis was quantified as the time to full occlusion. The effects of the various peptide treatments on coronary thrombosis is illustrated in FIG. 4.

[5] = tested on: Gore-tex vascular graft thrombosis; assay: Platelet and fibrinogen uptake by Gore-Tex grafts, baboon ex vivo shunt; format: in vivo
Protocol: Adult male baboons (weighing 16 to 25 kg) were used in these studies. These were sedated with ketamine hydrochloride (200 to 250 mg intramuscular injection) and maintained under anesthesia with sodium pentobarbital (50 to 75 mg administered intravenously as necessary).
Twenty-four hours before the ex vivo shunt was established, platelets were isolated from 500 ml of blood from the test animal and labelled with ca. 500 microcuries of indium-111 oxine (Medi+Physics, Emeryville, Calif.), which irreversibly and specifically binds to platelets with an efficiency of 50%. Immediately after labelling, these platelets were then injected back into the animal and allowed to circulate for 24 hours. Immediately before the start of the study, fibrinogen that had been isolated from the animal and labelled with iodine-131 (DuPont Nuclear, Boston, Mass.) was also injected back into the animal. Also at this time, baseline determinations of the clotting and template bleeding times were made, and blood samples were drawn for hematology studies.
To establish the ex vivo shunt, the femoral artery and vein were percutaneously cannulated with introducer catheters (KMA Inc., Mansfield, Mass.). The catheters were then connected to medical-grade, heparin-coatedsilastic tubing (2.59 mm internal diameter, (Extracorporeal Medical Specialties, Inc., King of Prussia, Pa.). […] Finally, a 5 cm-long test segment of a 4 mm (internal diameter) vascular graft was inserted at the apex of the circuit. The graft used in these studies was Gore-tex (expanded polytetrafluoroethylene, (W. L. Gore and Associates, Inc., Flagstaff, Az). An electromagnetic flow probe was then inserted into the tubing circuit to measure blood flow, which was maintained at 100 ml/min. by varying the resistance imported by a partially occluding screw clamp that was distal to the probe. Finally, a 5 cm-long test segment of a 4 mm (internal diameter) vascular graft was inserted at the apex of the circuit. The graft used in these studies was Gore-tex (expanded polytetrafluoroethylene, W. L. Gore and Associates, Inc., Flagstaff, Ariz.).
Platelet deposition onto the grafts was monitored by dynamic scanning with a gamma camera (Sigma 400, Ohio Nuclear, Inc., Sohon, Ohio), which detects the gamma radiation emitted by the ^111 indium-labelled platelets. Once the circuit was in place, the animal was placed under this camera, and blood flow was initiated. Scans were then taken at the rate of one frame per two minutes for two hours. The data from these scans were collected on a dedicated Digital MDA computer (Maynard, Mass.). […]

platelets [6] = assay: Platelet aggregation on PRP of the peptide-treated baboon; format: in vivo; details: baboon animal 2, ADP 10 μm, 0, 1 and 2 hours
Protocol: At one- and two-hour time points, template bleeding times were measured, and blood samples were drawn to assess the hematology aggregation studies. Platelet aggregation studies were performed as described in Example V using ADP as the stimulus.
In addition, platelet aggregation studies were conducted on PRP derived from the second animal. Whole blood was drawn at three time points (0, 1 and 2 hours) of both control and experimental shunts.

human platelets = assay: Human platelet aggregation, modified assay (Table II); format: cell-based; details: human PRP, citrate; aggregating agent collagen, U46619 or ADP
Protocol: In an independent study, a slightly modified aggregation assay was used. Platelet aggregation assays were performed in human platelet rich plasma (PRP). […] The blood was centrifuged at 160×g for 10 minutes at 22° C. and allowed to stand for 5 minutes after which the PRP was decanted. Platelet poor plasma (PPP) was isolated from the remaining blood after centrifugation at 2000×g for 25 minutes. The platelet count of the PRP was diluted to about 300,000 platelets per microliter with PPP.
A 225 μl aliquot of PRP plus 25 μl of either a dilution of the test inhibitor sample or a control (PBS) was incubated for 5 minutes in a Chrono-log Whole Blood Aggregometer at 37° C. An aggregating agent (collagen, 1 μg/ml; U46619, 100 ng/ml; or ADP, 17μM) was added and the transmission was recorded.

[7] = Peripheral blood flow (PBF), laser dopler flow probe, rabbit ear; format: in vivo; details: time 10 min, bolus dose as listed per peptide
Protocol: Unanesthetized male New Zealand White rabbits (2.5-3.5 kg) were placed in a standard rabbit restrainer. Ears were shaved and a 20G teflon catheter with flowswitch (Viggo) was placed in the medial artery, flushed with saline and locked with 1 ml of heparinized saline ([…]). A 22G catheter (Abbott) fitted with an injection cap (Medex) was placed in the marginal vein of the same ear. Saline or a GP IIb IIIa receptor antagonist, at a concentration of 1 to 3 mg/ml, was infused via the venous catheter. At time 0, 41% of the dose was given as a bolus over 2 minutes. The remainder was continuously infused over the following 60 minutes. Blood samples (3.2 ml) were collected into syringes without needles via the arterial catheter at -10, -5, 10, 45 and 60 minutes. […] The sample was divided into 1.5 ml aliquots and centrifuged at room temperature for 5 seconds at 12,000 G. The resulting platelet rich plasma (PRP) is used to measure ex-vivo platelet aggregation (XPA). […]
In an alternative series of experiments, (Table 2) PBF was measured quantitatively with a laser dopler flow probe (Perimed). The probe was positioned securely over the vascular bed of one ear and flow monitored continuously. Each inhibitor was infused and CBT measured in the opposing ear. No arterial catheter was placed for blood sampling, consequently XPA […] in these animals. […]

platelets [8] = assay: Thrombin-stimulated platelet aggregation (Table I); details: read-out: Thrombin Stimulated Aggregation; thrombin 2 U/ml, gel-filtered platelets, 37° C.
Protocol: (§3) Briefly, the change in light transmission was measured through a stirred suspension of platelets in an aggregometer (Model 400 VS, Chrono-Log, Hayertown, Pa., USA). […] In studies using thrombin, the PRP was gel-filtered on Sepharose 2B in divalent ion-free Tyrode's solution containing 2% BSA. For all studies, the reference standard was platelet-poor plasma, which was obtained by centrifuging PRP at 1000×g for 5 min.
(§4) All aggregation studies were performed at 37° C. with a constantly stirred suspension of 3×10^8 platelets/ml. (Platelet count was determined with the aid of a hemacytometer.) Peptides and stimulants were added to these suspensions in 1% dilutions. The PRP and gel-filtered platelets were used within three hours from the time of blood collection.
(§5) Peptide anti-aggregation potencies were determined from dose-responsive curves for the inhibition of the maximum aggregation responses stimulated by physiologic doses of ADP (10 μm) and thrombin (2 U/ml).

platelets [9] = assay: ADP-stimulated platelet aggregation in platelet-rich plasma (Table I); details: read-out: ADP-Stimulated Aggregation; ADP 10 μm, citrated platelet-rich plasma, 37° C.; * concentrations unconfirmed by amino acid composition analysis
Protocol: as §3, §4, §5

platelets [10] = assay: Ex vivo platelet aggregation in dogs (Example XII H); details: dog, 10 μg/mL collagen as agonist
Protocol: More importantly, several peptides in FIG. 23 were administered to dogs (according to the method of Example VII) at doses capable of inhibiting ex vivo platelet aggregation by >95%.
The bleeding time indicated in the parentheses was measured at a five-fold higher concentration of peptide. […]

GP IIb/IIIa [11] = biological target: T2, GP IIb/IIIa; assay: Inhibition of ligand binding to GP IIb/IIIa; details: fibrinogen versus fibronectin and vitronectin
[12] = baboon animal 1, two bolus IV injections of 10 mg/kg
[13] = baboon animal 2, 10 mg/kg bolus IV then 10 mg/kg/hr infusion for two hours

T2 sequence (P08514 32-887 limits assumed): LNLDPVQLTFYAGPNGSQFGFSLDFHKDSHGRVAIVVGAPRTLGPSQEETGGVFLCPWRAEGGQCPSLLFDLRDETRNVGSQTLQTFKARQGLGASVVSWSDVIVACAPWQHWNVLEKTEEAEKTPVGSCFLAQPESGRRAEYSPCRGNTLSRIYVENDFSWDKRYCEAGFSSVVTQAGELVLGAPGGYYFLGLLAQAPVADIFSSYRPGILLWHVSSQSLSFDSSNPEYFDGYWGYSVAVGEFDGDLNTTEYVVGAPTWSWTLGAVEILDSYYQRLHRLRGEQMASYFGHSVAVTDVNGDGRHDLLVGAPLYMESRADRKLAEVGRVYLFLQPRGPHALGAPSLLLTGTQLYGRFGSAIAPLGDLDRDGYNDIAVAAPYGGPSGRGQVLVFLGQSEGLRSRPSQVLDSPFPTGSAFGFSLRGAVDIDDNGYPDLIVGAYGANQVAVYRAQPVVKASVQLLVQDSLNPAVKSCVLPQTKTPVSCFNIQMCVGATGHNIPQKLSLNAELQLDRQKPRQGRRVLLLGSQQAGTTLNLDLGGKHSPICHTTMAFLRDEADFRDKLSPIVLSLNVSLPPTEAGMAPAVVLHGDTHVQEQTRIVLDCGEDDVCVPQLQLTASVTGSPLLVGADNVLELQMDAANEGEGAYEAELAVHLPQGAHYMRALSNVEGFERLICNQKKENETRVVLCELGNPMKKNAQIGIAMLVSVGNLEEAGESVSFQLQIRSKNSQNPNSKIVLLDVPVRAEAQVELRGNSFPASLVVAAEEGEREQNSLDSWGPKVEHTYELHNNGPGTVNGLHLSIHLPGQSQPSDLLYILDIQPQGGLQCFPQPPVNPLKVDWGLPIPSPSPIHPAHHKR
T2 sequence (P08514 891-1039 partner limits assumed): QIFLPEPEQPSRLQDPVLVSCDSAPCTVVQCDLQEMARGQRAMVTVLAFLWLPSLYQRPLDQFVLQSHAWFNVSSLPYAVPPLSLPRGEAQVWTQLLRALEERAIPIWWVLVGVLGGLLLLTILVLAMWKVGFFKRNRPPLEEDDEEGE
T2 sequence (P05106 27-788): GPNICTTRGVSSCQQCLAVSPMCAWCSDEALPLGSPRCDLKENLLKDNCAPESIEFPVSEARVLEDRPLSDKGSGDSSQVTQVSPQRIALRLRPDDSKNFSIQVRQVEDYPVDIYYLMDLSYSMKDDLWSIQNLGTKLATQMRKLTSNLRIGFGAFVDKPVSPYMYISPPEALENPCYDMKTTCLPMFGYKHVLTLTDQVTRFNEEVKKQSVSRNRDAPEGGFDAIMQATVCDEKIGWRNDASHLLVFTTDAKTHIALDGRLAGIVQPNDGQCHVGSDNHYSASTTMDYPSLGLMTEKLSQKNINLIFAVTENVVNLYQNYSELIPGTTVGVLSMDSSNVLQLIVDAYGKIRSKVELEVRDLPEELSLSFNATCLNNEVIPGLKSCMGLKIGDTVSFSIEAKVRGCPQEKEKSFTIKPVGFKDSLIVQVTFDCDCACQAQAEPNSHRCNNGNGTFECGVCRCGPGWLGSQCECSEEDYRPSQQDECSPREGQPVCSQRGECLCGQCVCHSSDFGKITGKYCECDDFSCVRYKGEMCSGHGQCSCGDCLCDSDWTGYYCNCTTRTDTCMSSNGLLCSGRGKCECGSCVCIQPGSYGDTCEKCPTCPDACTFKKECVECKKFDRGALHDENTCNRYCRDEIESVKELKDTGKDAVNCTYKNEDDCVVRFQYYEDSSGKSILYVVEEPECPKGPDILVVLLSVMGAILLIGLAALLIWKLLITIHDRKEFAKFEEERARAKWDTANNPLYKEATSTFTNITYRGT
T1 sequence (P08648 42-894 limits assumed): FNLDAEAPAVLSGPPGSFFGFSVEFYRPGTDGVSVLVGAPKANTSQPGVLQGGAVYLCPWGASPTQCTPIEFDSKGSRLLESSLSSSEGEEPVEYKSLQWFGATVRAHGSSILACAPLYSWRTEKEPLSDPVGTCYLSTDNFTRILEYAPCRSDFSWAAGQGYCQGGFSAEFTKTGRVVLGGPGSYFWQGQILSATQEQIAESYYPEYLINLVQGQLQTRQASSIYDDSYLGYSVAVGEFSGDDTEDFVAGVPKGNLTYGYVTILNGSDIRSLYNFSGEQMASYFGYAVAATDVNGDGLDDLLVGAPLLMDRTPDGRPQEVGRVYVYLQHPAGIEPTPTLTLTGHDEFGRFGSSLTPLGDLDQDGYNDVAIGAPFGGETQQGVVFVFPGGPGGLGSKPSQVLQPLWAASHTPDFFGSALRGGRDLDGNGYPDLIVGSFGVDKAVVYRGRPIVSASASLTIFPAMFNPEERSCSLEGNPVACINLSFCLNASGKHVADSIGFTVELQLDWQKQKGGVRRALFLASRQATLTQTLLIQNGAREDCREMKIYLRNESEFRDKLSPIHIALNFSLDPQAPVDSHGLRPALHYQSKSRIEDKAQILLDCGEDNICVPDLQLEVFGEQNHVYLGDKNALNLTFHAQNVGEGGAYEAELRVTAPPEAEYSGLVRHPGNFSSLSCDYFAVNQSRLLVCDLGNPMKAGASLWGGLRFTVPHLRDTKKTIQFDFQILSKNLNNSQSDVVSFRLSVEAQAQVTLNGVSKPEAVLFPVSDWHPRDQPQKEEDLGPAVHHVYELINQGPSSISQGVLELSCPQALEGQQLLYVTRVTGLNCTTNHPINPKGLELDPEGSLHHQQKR
T1 sequence (P08648 895-1049 partner limits assumed): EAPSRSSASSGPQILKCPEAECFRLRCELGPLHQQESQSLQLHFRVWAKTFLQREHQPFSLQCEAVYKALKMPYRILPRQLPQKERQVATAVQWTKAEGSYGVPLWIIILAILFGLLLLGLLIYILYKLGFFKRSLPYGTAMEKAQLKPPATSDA
T1 sequence (P05556 21-798): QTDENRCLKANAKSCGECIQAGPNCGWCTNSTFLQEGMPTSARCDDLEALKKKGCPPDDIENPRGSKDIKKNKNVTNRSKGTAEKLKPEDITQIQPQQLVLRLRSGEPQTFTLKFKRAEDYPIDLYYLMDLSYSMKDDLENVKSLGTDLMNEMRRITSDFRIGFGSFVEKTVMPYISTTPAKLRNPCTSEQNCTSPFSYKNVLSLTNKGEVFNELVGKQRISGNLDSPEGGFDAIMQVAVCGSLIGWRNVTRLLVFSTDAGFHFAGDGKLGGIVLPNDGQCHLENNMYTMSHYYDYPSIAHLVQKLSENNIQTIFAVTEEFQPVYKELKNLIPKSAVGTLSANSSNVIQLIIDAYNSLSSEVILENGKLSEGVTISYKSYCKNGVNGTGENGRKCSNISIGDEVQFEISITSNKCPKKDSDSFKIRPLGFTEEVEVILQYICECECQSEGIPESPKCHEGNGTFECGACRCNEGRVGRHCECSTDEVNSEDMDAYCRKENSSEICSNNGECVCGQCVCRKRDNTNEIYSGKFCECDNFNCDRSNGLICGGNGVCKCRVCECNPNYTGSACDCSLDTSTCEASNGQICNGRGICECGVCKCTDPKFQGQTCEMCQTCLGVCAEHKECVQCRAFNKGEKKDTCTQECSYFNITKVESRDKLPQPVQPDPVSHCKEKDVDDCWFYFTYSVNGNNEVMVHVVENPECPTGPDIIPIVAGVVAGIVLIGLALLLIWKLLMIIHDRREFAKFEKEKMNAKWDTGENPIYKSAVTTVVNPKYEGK

Substance: VRGDSPDG
- pIC50 [1]: 7.40
- pIC50 [2]: 6.62
- pIC50 (GP IIb/IIIa [3]): 6.57

Substance: G(Pen)GHRGDLRCA [Peptide 2G]
- pIC50 (canine platelets): 4.52 to 4.82
- ex vivo ADP-stimulated aggregation (platelets [4]; 10 mg/kg injected, 1, 3 and 5 h): substantially inhibited
- coronary thrombosis, time to full occlusion (coronary thrombosis; 10 mg/kg): did not significantly influence this frequency
- reduction in 111In-platelet uptake by graft [5, 12]: 90%
- reduction in 131I-fibrinogen uptake by graft [5, 12]: 79%
- reduction in labelled fibrinogen uptake by graft [5, 13]: 78%
- reduction in labelled platelet uptake by graft [5, 13]: 84%
- platelet aggregation in PRP (platelets [6]): completely unresponsive

Substance: R(Pen)GHRGDWRCR [Peptide 4Q]
- IC50 (human platelets): 3.3 µM
- pIC50 (canine platelets): 5.30 to 5.82
- ex vivo platelet activation by collagen (platelets [4]; 5 mg/kg injection): near-maximal inhibition
- ex vivo platelet response to ADP and AA (platelets [4]; 5 mg/kg injection, all three time points): completely unresponsive
- ex vivo platelet aggregation by ADP, AA and collagen (platelets [4]; 10 mg/kg injection): prevented platelet aggregation by all three stimuli at one- and three-hour time points
- ex vivo platelet responsiveness (platelets [4]; 10 mg/kg, five-hour point): platelet responsiveness was slightly improved
- coronary thrombosis, time to full occlusion (coronary thrombosis; 5 mg/kg): significantly prolonged the time to occlusion
- thrombus formation (coronary thrombosis; 5 mg/kg, circulating platelet levels one-third of normal): able to prevent thrombus formation
- coronary thrombosis, time to full occlusion (coronary thrombosis; 10 mg/kg): completely prevented occlusion for the full five-hour experimental period
- PBF (units) [7]: 9 units
- pIC50 (platelets [8]): 5.92
- pIC50 (platelets [9]): 5.89

Substance: Ac-CNPRGD(O-Me-Y)RCNH2 [Peptide 8X]
- ex vivo platelet aggregation inhibited (platelets [10]): > 95%
- differential inhibition of ligand binding to GP IIb/IIIa (GP IIb/IIIa [11]): inhibits the binding of fibrinogen to GP IIb/IIIa more than it inhibits the binding of fibronectin and vitronectin to the same integrin
